Experimental data reported in patent US20250163104A1, “MACROCYCLIC IMMUNOMODULATORS” (priority 2021, published 2025).
Where a SMILES comes first, the peptide text is derived from it. Bridges are numbered along the chain shown (N, C = ends). [ ]: non-standard residue; d: D form. The star is where a group is joined. ξ: configuration not given here. Phe(3-CF3) = N[C@@H](Cc1cccc(C(F)(F)F)c1)C(=O)O; Ala(morpholin-4-yl) = N[C@@H](CN1CCOCC1)C(=O)O; Phe(4-COOH) = N[C@@H](Cc1ccc(C(=O)O)cc1)C(=O)O; Bip = N[C@@H](Cc1ccc(-c2ccccc2)cc1)C(=O)O; Phe(3-Me) = Cc1cccc(C[C@H](N)C(=O)O)c1; Phe(4-F) = N[C@@H](Cc1ccc(F)cc1)C(=O)O; 2Nal = N[C@@H](Cc1ccc2ccccc2c1)C(=O)O; Val(3-OH) = CC(C)(O)[C@H](N)C(=O)O; 3Pal = N[C@@H](Cc1cccnc1)C(=O)O; 4Pal = N[C@@H](Cc1ccncc1)C(=O)O; Cha = N[C@@H](CC1CCCCC1)C(=O)O; Cit = NC(=O)NCCC[C@H](N)C(=O)O; Ile(3ξ) = CCC(C)[C@H](N)C(=O)O; dCha = N[C@H](CC1CCCCC1)C(=O)O; Carboxymethyl = O=C(O)C*; Orn = NCCC[C@H](N)C(=O)O; Pra = C#CC[C@H](N)C(=O)O; Dab = NCC[C@H](N)C(=O)O; Dap = NC[C@H](N)C(=O)O

Target: T1, human PD-1 / PD-L1-Ig binding on Jurkat cell line over-expressing human PD-1 (Jurkat-PD-1) (Homo sapiens, UniProt Q15116)
T1 construct: expressed in transfected cells; host or cells: Jurkat
Experiment: Jurkat-PD-1 Cell Binding High-Content Screening Assay (CBA)
Type: cell-based
Conditions: Jurkat-PD-1 cells, PE-labeled PD-L1-Ig 20 nM final; read-out: Jurkat HPD1_PDL1 IC50
In short: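 Compounds were preincubated with Jurkat-hPD-1 cells in DMEM plus 10% fetal calf serum for 2 h at 37° C. Phycoerythrin-labeled PD-L1-Ig (20 nM final) was then added for 1 hour. Cells were fixed in 4% paraformaldehyde with Hoechst 33342, and bound fluorescence was quantified by high-content imaging.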

T1 sequence (Q15116 25-288): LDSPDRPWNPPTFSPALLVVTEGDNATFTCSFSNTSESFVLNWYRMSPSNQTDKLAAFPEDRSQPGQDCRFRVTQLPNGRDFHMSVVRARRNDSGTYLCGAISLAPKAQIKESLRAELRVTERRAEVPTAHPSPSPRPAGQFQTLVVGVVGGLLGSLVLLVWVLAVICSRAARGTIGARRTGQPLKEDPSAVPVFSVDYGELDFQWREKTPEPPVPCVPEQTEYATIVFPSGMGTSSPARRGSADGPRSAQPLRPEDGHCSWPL

Row | SMILES | IC50 [nM]
1 | CC(C)C[C@H]1NC(=O)[C@H](CCCN)NC(=O)[C@H](CCCCN)NC(=O)[C@H](Cc2ccc(-c3ccccc3)cc2)NC(=O)[C@H](C(C)C)NC(=O)[C@H](Cc2c[nH]c3ccccc23)NC(=O)[C@H](CC(=O)O)NC(=O)[C@H](Cc2ccncc2)NC(=O)[C@H](CN)NC(=O)CSC[C@@H](C(=O)N[C@@H](CCCN)C(N)=O)NC(=O)[C@H](CCCNC(=N)N)NC(=O)[C@H](C(C)C)NC(=O)[C@H](CC2CCCCC2)NC(=O)[C@H](CCN)NC1=O [Compound 2254] ({CH2CO}-[Dap][4Pal]DWV[Bip]K[Orn][dL][Dab][Cha]VRC[Orn]-NH2; thioether N-14) | 123
2 | CC(C)C[C@H]1NC(=O)[C@H](CCCN)NC(=O)[C@H](CCC(=O)O)NC(=O)[C@H](Cc2ccc(-c3ccccc3)cc2)NC(=O)[C@H](C(C)C)NC(=O)[C@H](Cc2c[nH]c3ccccc23)NC(=O)[C@H](CC(=O)O)NC(=O)[C@H](Cc2cccs2)NC(=O)[C@H](Cc2ccc(OCC(=O)O)cc2)NC(=O)CSC[C@@H](C(=O)N[C@@H](C)C(N)=O)NC(=O)[C@H]([C@@H](C)O)NC(=O)[C@H](C(C)C)NC(=O)[C@H](CC2CCCCC2)NC(=O)[C@H](CCN)NC1=O [Compound 2193] | 23.4
3 | Cc1cccc(C[C@@H]2NC(=O)[C@H](CC(=O)O)NC(=O)[C@H](Cc3ccc(C(=O)O)cc3)NC(=O)[C@H](Cc3ccncc3)NC(=O)CSC[C@@H](C(=O)N[C@@H](CCN)C(N)=O)NC(=O)[C@H](CO)NC(=O)[C@H](C(C)(C)O)NC(=O)[C@H](CC3CCCCC3)NC(=O)[C@H](CCN)NC(=O)[C@@H](CC(C)C)NC(=O)[C@H](CCCN)NC(=O)[C@H](Cc3ccc(OCC(=O)O)cc3)NC(=O)[C@H](Cc3ccc(-c4ccccc4)cc3)NC(=O)[C@H](Cc3ccc(OCC(=O)O)cc3)NC2=O)c1 [Compound 2293] ({CH2CO}-[4Pal][Phe(4-COOH)]D[Phe(3-Me)]Y(Carboxymethyl)[Bip]Y(Carboxymethyl)[Orn][dL][Dab][Cha][Val(3-OH)]SC[Dab]-NH2; thioether N-14) | 5.2
4 | CC(C)C[C@H]1NC(=O)[C@H](CCCN)NC(=O)[C@H](Cc2ccc(C(=O)O)cc2)NC(=O)[C@H](Cc2ccc(-c3ccccc3)cc2)NC(=O)[C@H](Cc2ccc3ccccc3c2)NC(=O)[C@H](Cc2cccc(C(F)(F)F)c2)NC(=O)[C@H](CC(=O)O)NC(=O)[C@H](Cc2ccc(C(=O)O)cc2)NC(=O)[C@H](CN2CCOCC2)NC(=O)CSC[C@@H](C(=O)N[C@@H](CCN)C(N)=O)NC(=O)[C@H](CCC(=O)O)NC(=O)[C@H](C(C)C)NC(=O)[C@H](CC2CCCCC2)NC(=O)[C@H](CCN)NC1=O [Example 2738] ({CH2CO}-[Ala(morpholin-4-yl)][Phe(4-COOH)]D[Phe(3-CF3)][2Nal][Bip][Phe(4-COOH)][Orn][dL][Dab][Cha]VEC[Dab]-NH2; thioether N-14) | 2.3
5 | C#CC[C@H](NC(=O)[C@H](CCCN)NC(=O)[C@@H]1CSCC(=O)N[C@@H](CN)C(=O)N[C@@H](Cc2ccc(OCC(=O)O)cc2)C(=O)N[C@@H](CC(=O)O)C(=O)N[C@@H](Cc2cccc(C)c2)C(=O)N[C@@H](C(C)C)C(=O)N[C@@H](Cc2ccc(-c3ccccc3)cc2)C(=O)N[C@@H](C(C)C)C(=O)N[C@@H](CCCN)C(=O)N[C@H](CC(C)C)C(=O)N[C@@H](CCN)C(=O)N[C@@H](CC2CCCCC2)C(=O)N[C@@H](C(C)C)C(=O)N[C@@H]([C@@H](C)O)C(=O)N1)C(N)=O [Compound 2017] ({CH2CO}-[Dap]Y(Carboxymethyl)D[Phe(3-Me)]V[Bip]V[Orn][dL][Dab][Cha]VTC[Orn][Pra]-NH2; thioether N-14) | 11.6
6 | C#CC[C@H](NC(=O)[C@H](CCC(=O)O)NC(=O)[C@@H]1CSCC(=O)N[C@@H](CN)C(=O)N[C@@H](Cc2ccc(OCC(=O)O)cc2)C(=O)N[C@@H](CC(=O)O)C(=O)N[C@@H](Cc2cccc(C)c2)C(=O)N[C@@H](Cc2ccc(OCC(=O)O)cc2)C(=O)N[C@@H](Cc2ccc(-c3ccccc3)cc2)C(=O)N[C@@H](Cc2ccc(OCC(=O)O)cc2)C(=O)N[C@@H](CCCN)C(=O)N[C@H](CC(C)C)C(=O)N[C@@H](CCN)C(=O)N[C@@H](CC2CCCCC2)C(=O)N[C@@H](C(C)C)C(=O)N[C@@H]([C@@H](C)O)C(=O)N1)C(N)=O [Compound 1803] ({CH2CO}-[Dap]Y(Carboxymethyl)D[Phe(3-Me)]Y(Carboxymethyl)[Bip]Y(Carboxymethyl)[Orn][dL][Dab][Cha]VTCE[Pra]-NH2; thioether N-14) | 24.7
7 | CC[C@H](C)[C@@H]1NC(=O)[C@H](Cc2ccc(-c3ccccc3)cc2)NC(=O)[C@H](C(C)C)NC(=O)[C@H](Cc2c[nH]c3ccccc23)NC(=O)[C@H](CC(=O)O)NC(=O)[C@H](Cc2ccc(O)cc2)NC(=O)[C@H](Cc2ccncc2)NC(=O)CSC[C@@H](C(=O)N[C@@H](C)C(N)=O)NC(=O)[C@H]([C@@H](C)O)NC(=O)[C@H](C(C)C)NC(=O)[C@H](CC(C)C)NC(=O)[C@H](CCN)NC(=O)[C@@H](CC(C)C)NC(=O)[C@H](CCCN)NC1=O [Compound 1053] ({CH2CO}-[4Pal]YDWV[Bip]I[Orn][dL][Dab]LVTCA-NH2; thioether N-14) | 13.7
8 | CC(C)C[C@@H]1NC(=O)[C@H](CCN)NC(=O)[C@@H](CC(C)C)NC(=O)[C@H](CCN)NC(=O)[C@H](CCCNC(N)=O)NC(=O)[C@H](Cc2ccc(-c3ccccc3)cc2)NC(=O)[C@H](C(C)C)NC(=O)[C@H](Cc2c[nH]c3ccccc23)NC(=O)[C@H](CC(=O)O)NC(=O)[C@H](Cc2ccc(O)cc2)NC(=O)[C@H](CC(N)=O)NC(=O)CSC[C@@H](C(=O)N[C@@H](C)C(N)=O)NC(=O)[C@H]([C@@H](C)O)NC(=O)[C@H](C(C)C)NC1=O [Compound 1018] ({CH2CO}-NYDWV[Bip][Cit][Dab][dL][Dab]LVTCA-NH2; thioether N-14) | 20.7
9 | Cc1cccc(C[C@@H]2NC(=O)[C@H](CC(=O)O)NC(=O)[C@H](Cc3ccc(C(=O)O)cc3)NC(=O)[C@H](Cc3ccc(OCC(=O)O)cc3)NC(=O)CSC[C@@H](C(=O)N[C@@H](C)C(N)=O)NC(=O)[C@H]([C@@H](C)O)NC(=O)[C@H](C(C)C)NC(=O)[C@H](CC3CCCCC3)NC(=O)[C@H](CCN)NC(=O)[C@@H](Cc3ccccc3)NC(=O)[C@H](CCCN)NC(=O)[C@H](CCC(=O)O)NC(=O)[C@H](Cc3ccc(-c4ccccc4)cc3)NC(=O)[C@H](C(C)C)NC2=O)c1 [Compound 1437] ({CH2CO}-Y(Carboxymethyl)[Phe(4-COOH)]D[Phe(3-Me)]V[Bip]E[Orn][dF][Dab][Cha]VTCA-NH2; thioether N-14) | 16.6
10 | Cc1cccc(C[C@@H]2NC(=O)[C@H](CC(=O)O)NC(=O)[C@H](Cc3ccc(C(=O)O)cc3)NC(=O)[C@H](Cc3ccc(F)cc3)NC(=O)CSC[C@@H](C(=O)N[C@@H](CCN)C(N)=O)NC(=O)[C@H](Cc3cnc[nH]3)NC(=O)[C@H](C(C)(C)O)NC(=O)[C@H](CC3CCCCC3)NC(=O)[C@H](CCN)NC(=O)[C@@H](CC(C)C)NC(=O)[C@H](CCCN)NC(=O)[C@H](Cc3ccc(OCC(=O)O)cc3)NC(=O)[C@H](Cc3ccc(-c4ccccc4)cc3)NC(=O)[C@H](Cc3ccc(OCC(=O)O)cc3)NC2=O)c1 [Compound 2684] ({CH2CO}-[Phe(4-F)][Phe(4-COOH)]D[Phe(3-Me)]Y(Carboxymethyl)[Bip]Y(Carboxymethyl)[Orn][dL][Dab][Cha][Val(3-OH)]HC[Dab]-NH2; thioether N-14) | 1.9
11 | CCC(C)[C@@H]1NC(=O)[C@H](Cc2ccc(-c3ccccc3)cc2)NC(=O)[C@H](C(C)C)NC(=O)[C@H](Cc2cccc(C)c2)NC(=O)[C@H](CC(=O)O)NC(=O)[C@H](Cc2ccc(C(=O)O)cc2)NC(=O)[C@H](Cc2ccncc2)NC(=O)CSC[C@@H](C(=O)N[C@@H](CCN)C(N)=O)NC(=O)[C@H]([C@@H](C)O)NC(=O)[C@H](C(C)C)NC(=O)[C@H](CC2CCCCC2)NC(=O)[C@H](CCN)NC(=O)[C@@H](CC(C)C)NC(=O)[C@H](CCCN)NC1=O (some centres unmarked) [Compound 2301] | 14.8
12 | CCC(C)[C@@H]1NC(=O)[C@H](Cc2ccc(-c3ccccc3)cc2)NC(=O)[C@H](C(C)C)NC(=O)[C@H](Cc2c[nH]c3ccccc23)NC(=O)[C@H](CC(=O)O)NC(=O)[C@H](Cc2cccnc2)NC(=O)[C@H](CC(N)=O)NC(=O)CSC[C@@H](C(=O)N[C@@H](C)C(N)=O)NC(=O)[C@H]([C@@H](C)O)NC(=O)[C@H](C(C)C)NC(=O)[C@H](CC2CCCCC2)NC(=O)[C@H](CCN)NC(=O)[C@@H](CC(C)C)NC(=O)[C@H](CCCN)NC1=O (stereo partly drawn) [Compound 2228] ({CH2CO}-N[3Pal]DWV[Bip][Ile(3ξ)][Orn][dL][Dab][Cha]VTCA-NH2; thioether N-14) | 16.1
13 | CC(C)[C@@H]1NC(=O)[C@H](Cc2c[nH]c3ccccc23)NC(=O)[C@H](CC(=O)O)NC(=O)[C@H](Cc2ccc(OCC(=O)O)cc2)NC(=O)[C@H](Cc2ccc(OCC(=O)O)cc2)NC(=O)CSC[C@@H](C(=O)N[C@@H](C)C(N)=O)NC(=O)[C@H]([C@@H](C)O)NC(=O)[C@H](C(C)C)NC(=O)[C@H](CC2CCCCC2)NC(=O)[C@H](CCN)NC(=O)[C@@H](CC2CCCCC2)NC(=O)[C@H](CCCN)NC(=O)[C@H](CCCNC(N)=O)NC(=O)[C@H](Cc2ccc(-c3ccccc3)cc2)NC1=O [Compound 1641] ({CH2CO}-Y(Carboxymethyl)Y(Carboxymethyl)DWV[Bip][Cit][Orn][dCha][Dab][Cha]VTCA-NH2; thioether N-14) | 37.1
14 | CC(C)C[C@H]1NC(=O)[C@H](CCCN)NC(=O)[C@H](CCCNC(N)=O)NC(=O)[C@H](Cc2ccc(-c3ccccc3)cc2)NC(=O)[C@H](C(C)C)NC(=O)[C@H](Cc2c[nH]c3ccccc23)NC(=O)[C@H](CC(=O)O)NC(=O)[C@H](Cc2cccc(C(F)(F)F)c2)NC(=O)[C@H](CN)NC(=O)CSC[C@@H](C(=O)N[C@@H](C)C(N)=O)NC(=O)[C@H]([C@@H](C)O)NC(=O)[C@H](C(C)C)NC(=O)[C@H](CC2CCCCC2)NC(=O)[C@H](CCN)NC1=O [Compound 2092] ({CH2CO}-[Dap][Phe(3-CF3)]DWV[Bip][Cit][Orn][dL][Dab][Cha]VTCA-NH2; thioether N-14) | 43.1
